Experimental findings from PubChem BioAssay AID624405 (Broad Institute, 2012) are described below.

Results filed as inconclusive are left out.

The test deals with C2C12 myotubes + simvastatin, ATP luminescence, 48 h. The test can be described thus: rescue of simvastatin-induced ATP loss – cell-based, C2C12 myotubes, ATP luminescence, cherry pick, dose response (AID 624405).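 Further: myotubes are challenged with simvastatin at 10 µM to lower ATP.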

Regarding `C[C@H]1CN([C@@H](C)CO)C(=O)Cc2cc(NC(=O)CCCCCC(=O)Nc3ccccc3N)ccc2O[C@H]1CN(C)CC1CCCCC1`, the AC40 is 2.67 µM.

For `Cc1ccc(O)c(CNc2ccccn2)c1`, the AC40 is 0.443 µM.

As to `Fc1ccc(C2=Nn3c(nnc3-c3n[nH]c4c3CCC4)SC2)cc1`, the AC40 was 1.23 µM.

For `C[C@H](CO)N1C[C@H](C)[C@@H](CN(C)Cc2ccc(Oc3ccccc3)cc2)Oc2c(NC(=O)Nc3cccc4ccccc34)cccc2C1=O`, the AC40 is 7.98 µM.

Consider `CCOCCCN1CN(S(=O)(=O)c2ccc(Cl)cc2)c2nc3ccccc3nc21`, for which the AC40 is 1.87 µM.

With `COC(=O)c1cc(=O)n(CCc2ccccc2F)c(=Nc2ccc(F)c(Cl)c2)s1`, the AC40 was 2.81 µM.

For `Cc1cccc(-c2nnc3n2N=C(c2ccccc2Br)CS3)c1`, the AC40 was 0.28 µM.

Regarding `CC(=O)Nc1nc2n(n1)C(c1ccc(F)cc1)C=C(c1ccccc1)N2` (stereo unspecified), the AC40 is 1.77 µM.

In the case of `NS(=O)(=O)OCC(Cc1ccccc1)N1C(=O)c2ccccc2C1=O` (stereo unspecified), the AC40 was 14.6 µM.

Take `O=C(CCCSc1nc(-c2ccco2)cc(C(F)(F)F)n1)NCc1cccs1`: the AC40 was 15.1 µM.

In the case of `Cc1ccc(S(=O)(=O)N(C)C[C@@H]2Oc3ccc(NS(=O)(=O)c4ccc(Cl)cc4)cc3C(=O)N([C@H](C)CO)C[C@@H]2C)cc1`, the AC40 is 8.22 µM.

On to `O=C(CN1CCC(c2nc3ccccc3s2)CC1)NCc1ccccc1`, for which the AC40 is 19.3 µM.

With `Cc1ccc(S(=O)(=O)N(C)C[C@H]2Oc3c(NC(=O)Nc4ccccc4)cccc3C(=O)N([C@@H](C)CO)C[C@H]2C)cc1`, the AC40 is 18 µM.

As to `CCOc1c(S(=O)(=O)N2CCCC2)ccc(Cl)c1Cl`, the AC40 was 5.43 µM.

With `C[C@H](CO)N1C[C@H](C)[C@@H](CN(C)Cc2ccc(C(=O)Nc3ccccc3N)cc2)Oc2ccc(NC(=O)Nc3ccc4c(c3)OCO4)cc2CC1=O`, the AC40 is 11.7 µM.

As for `CCC(c1nnnn1C1CCCC1)N1CCN(c2ccccc2F)CC1` (stereo unspecified), the AC40 is 4.11 µM.

Regarding `CN1C(=O)c2ccc(N(C)C)cc2C1=O`, the AC40 is 9.68 µM.

Regarding `Cc1ccc(S(=O)(=O)Nc2ccc3c(c2)CC(=O)N([C@@H](C)CO)C[C@H](C)[C@@H](CN(C)Cc2ccc(-c4ccccc4)cc2)O3)cc1`, the AC40 is 18.9 µM.

For `COc1cc(/C=C(/C(=O)c2cccs2)c2nc3ccccc3[nH]2)cc(OC)c1O`, the AC40 was 1.38 µM.

Regarding `O=C(CSCc1cnn(-c2ccccc2)c1-n1cccc1)NCc1cccs1`, the AC40 was 18.9 µM.

Take `Cc1cccc(-n2c(O)c(C=NC3CCS(=O)(=O)C3)c3ccccc3c2=O)c1` (stereo unspecified): the AC40 is 17.6 µM.

On to `CCn1c(-c2ccc(-c3ccccc3)cc2)c[nH]c1=S`, for which the AC40 is 3.72 µM.

`O=C(Nc1ccc(S(=O)(=O)N2CCCCC2)cc1)C1CCN(C(=O)c2ccco2)CC1`: the AC40 is 5.15 µM.

Turning to `Cc1ccc(S(=O)(=O)Nc2ccc3c(c2)CC(=O)N([C@H](C)CO)C[C@H](C)[C@@H](CN(C)Cc2ccc(Cl)c(Cl)c2)O3)cc1`, the AC40 is 8.12 µM.

Consider `Nc1nonc1-c1nc2ccccc2n1Cc1ccc(F)cc1Cl`, for which the AC40 was 0.892 µM.

In the case of `COc1ccc(C)cc1C(=O)C1CC(C(=O)O)C(C)(C)C1C` (stereo unspecified), the AC40 was 10.6 µM.

`Cc1ccc(N2CC(C(=O)Nc3ccc(N(C)C)cc3)CC2=O)cc1C` (stereo unspecified): the AC40 is 12 µM.

As for `C[C@H]1CN([C@@H](C)CO)C(=O)c2cc(NC(=O)Nc3cccc4ccccc34)ccc2O[C@@H]1CN(C)Cc1ccc(C(=O)Nc2ccccc2N)cc1`, the AC40 was 17.7 µM.

With `Cc1cccc(C(=O)Nc2cc(OCc3cccc(F)c3)c(Cl)cc2Cl)c1`, the AC40 is 15.9 µM.

On to `COc1ccc2c(Cl)c(-c3nnc(SCC(=O)c4ccccc4)n3C)sc2c1`, for which the AC40 is 1.13 µM.

Regarding `C[C@H]1CN([C@@H](C)CO)C(=O)c2cc(C#Cc3ccncc3)cnc2O[C@@H]1CN(C)CC1CCCC1`, the AC40 is 4.52 µM.

`O=C(CCNS(=O)(=O)c1ccc(Br)cc1)NCc1ccc2c(c1)OCO2`: the AC40 was 14.8 µM.

`O=C(CN1CCN(c2nc(-c3ccccc3)cs2)CC1)NCc1ccc2c(c1)OCO2`: the AC40 was 10 µM.

Turning to `C[C@H]1CN([C@@H](C)CO)C(=O)Cc2cc(NC(=O)CCCCCC(=O)Nc3ccccc3N)ccc2O[C@H]1CN(C)Cc1ccc(C(F)(F)F)cc1`, the AC40 is 4.15 µM.

Turning to `N#CCCCSc1nnc(CSc2nc3ccccc3s2)n1-c1ccccc1`, the AC40 is 9.75 µM.

As to `O=C1c2ccccc2-c2onc3ccc(Oc4ccccc4)c1c23`, the AC40 was 5.91 µM.

Consider `Cc1ccc(O)c(NC(=O)c2cc(-c3cccs3)on2)c1`, for which the AC40 is 14.3 µM.

`C[C@@H]1CN([C@H](C)CO)C(=O)Cc2cc(NS(=O)(=O)c3ccc(Cl)cc3)ccc2O[C@H]1CN(C)CC1CCCCC1`: the AC40 was 9.96 µM.

Turning to `C[C@@H]1CN([C@@H](C)CO)C(=O)c2cccc(NC(=O)Nc3ccc4c(c3)OCO4)c2O[C@H]1CN(C)Cc1ccc(C(=O)Nc2ccccc2N)cc1`, the AC40 is 9.42 µM.

Regarding `O=C(C#Cc1ccccc1)Nc1cccc(F)c1`, the AC40 was 3.42 µM.

For `O=C(NCc1ccco1)c1cc2sccc2n1Cc1ccc(F)cc1`, the AC40 is 16.4 µM.

With `O=C(Nc1cccc(O)c1)c1cc(-c2cccs2)on1`, the AC40 was 5.99 µM.

`CCOc1ccccc1NC(=O)c1ccccc1N(C)S(C)(=O)=O`: the AC40 was 5.38 µM.

On to `C=CCn1c(SCC(=O)NC2CCCC2)nc2scc(-c3ccco3)c2c1=O`, for which the AC40 was 9.19 µM.

With `O=C(OCc1nc2ccccc2s1)c1cnccn1`, the AC40 is 9.58 µM.

With `CCN1C(=O)NC2=C(C(=O)c3ccccc32)C1c1ccccc1F` (stereo unspecified), the AC40 was 5.31 µM.

For the molecule `C[C@H](CO)N1C[C@H](C)[C@H](CN(C)Cc2ccc(C(=O)Nc3ccccc3N)cc2)Oc2ccc(NC(=O)Nc3cccc4ccccc34)cc2CC1=O`, the AC40 was 10.5 µM.

Consider `C[C@H](CO)N1C[C@H](C)[C@H](CN(C)Cc2ccc(Cl)c(Cl)c2)Oc2ccc(NC(=O)CCCCCC(=O)Nc3ccccc3N)cc2CC1=O`, for which the AC40 was 13.4 µM.

Turning to `O=C(C1CCC1)N1CCCc2cc(S(=O)(=O)N3CCN(c4ccccc4)CC3)ccc21`, the AC40 was 16.6 µM.

Turning to `C[C@@H]1CN([C@@H](C)CO)C(=O)Cc2cc(N(C)C)ccc2O[C@@H]1CN(C)Cc1ccc(Cl)c(Cl)c1`, the AC40 was 9.93 µM.

Take `CCOC(=O)N1CCN(C(=O)C(c2ccccc2)c2ccccc2)CC1`: the AC40 is 5.75 µM.

Turning to `C[C@H](CO)N1C[C@H](C)[C@H](CN(C)Cc2ccc(C(=O)Nc3ccccc3N)cc2)Oc2ccc(N(C)C)cc2C1=O`, the AC40 is 2.53 µM.

Regarding `Cc1noc(C)c1NC(=O)Nc1cccc2c1O[C@H](CN(C)Cc1ccc(-c3ccccc3)cc1)[C@@H](C)CN([C@H](C)CO)C2=O`, the AC40 was 12.6 µM.

With `O=c1[nH]ncc2c3ccccc3n(Cc3ccccc3)c12`, the AC40 was 5.26 µM.

Regarding `c1coc(-c2nc3ccccc3s2)c1`, the AC40 was 18 µM.

Regarding `CCN(CC)c1ncnc2c1cnn2Cc1ccc(C)cc1`, the AC40 is 12 µM.

Consider `Cc1cccc(C)c1Nc1nnc(SCc2cc([N+](=O)[O-])cc3c2OCOC3)s1`, for which the AC40 was 3.85 µM.

Consider `COc1ccccc1NS(=O)(=O)c1cccc(NC(=O)c2nc3nc(C)cc(C)n3n2)c1`, for which the AC40 is 8.63 µM.

On to `C[C@H]1CN([C@@H](C)CO)C(=O)Cc2cc(NC(=O)CCCCCC(=O)Nc3ccccc3N)ccc2O[C@H]1CN(C)Cc1ccc(Oc2ccccc2)cc1`, for which the AC40 is 3.86 µM.

Turning to `C[C@H]1CN([C@@H](C)CO)C(=O)Cc2cc(NC(=O)CCCCCC(=O)Nc3ccccc3N)ccc2O[C@H]1CN(C)Cc1ccccc1`, the AC40 is 3.02 µM.

Turning to `Fc1ccccc1OCCCCn1cncn1`, the AC40 was 18.6 µM.

With `COc1ccc(-c2csc(C(C)(O)c3ccccc3)n2)cc1OC` (stereo unspecified), the AC40 is 13.4 µM.

On to `Cc1noc(C)c1S(=O)(=O)Nc1ccc2c(c1)CC(=O)N([C@H](C)CO)C[C@H](C)[C@@H](CN(C)Cc1ccc(C(F)(F)F)cc1)O2`, for which the AC40 is 4.59 µM.

For the molecule `C[C@H](CO)N1C[C@H](C)[C@@H](CN(C)Cc2ccc(Cl)c(Cl)c2)Oc2ccc(NC(=O)Cc3cn(C)c4ccccc34)cc2CC1=O`, the AC40 is 7.35 µM.

Turning to `CC1CCN(S(=O)(=O)c2ccc(NC(=O)C3CCN(C(=O)c4ccco4)CC3)cc2)CC1`, the AC40 is 6.94 µM.

Take `C[C@@H]1CN([C@H](C)CO)C(=O)Cc2cc(NS(C)(=O)=O)ccc2O[C@@H]1CN(C)Cc1ccc(-c2ccccc2)cc1`: the AC40 was 18.4 µM.

As to `C[C@H]1CN([C@@H](C)CO)S(=O)(=O)c2ccc(C#Cc3ccc(F)cc3)cc2O[C@@H]1CN(C)S(=O)(=O)c1cn(C)cn1`, the AC40 was 5.96 µM.

For the molecule `Oc1[nH]c2ccccc2c1C=Nc1ccc2c(c1)OCO2`, the AC40 is 1.99 µM.

On to `C[C@H]1C[C@@H](C)C(=O)[C@@H]([C@H](O)CC2CC(=O)NC(=O)C2)C1`, for which the AC40 is under 0.16 µM.

As for `CC(=O)c1ccc(-c2cc([C@H]3[C@H]4C=CC[C@@H](C)[C@@H]4C(=O)N3Cc3ccccc3)ccc2F)cc1`, the AC40 was 8.76 µM.

As for `COc1ccc(N(Cc2cc3ccccc3[nH]c2=O)S(=O)(=O)c2ccccc2)cc1`, the AC40 is 5.81 µM.

For `C[C@H](CO)N1C[C@H](C)[C@@H](CN(C)Cc2ccc(Oc3ccccc3)cc2)Oc2ccc(NC(=O)C3CCCCC3)cc2CC1=O`, the AC40 is 8.63 µM.

On to `Cc1ccc(S(=O)(=O)Nc2ccc3c(c2)CC(=O)N([C@@H](C)CO)C[C@@H](C)[C@H](CN(C)Cc2ccc(-c4ccccc4)cc2)O3)cc1`, for which the AC40 was 1.17 µM.

Turning to `CCOc1ccc2nc(N3CCCC(C(=O)N4CCN(CC)CC4)C3)sc2c1` (stereo unspecified), the AC40 was 6.42 µM.

With `Cc1ccc(C2(c3ccc(C)cc3)NC(=O)N(Cc3c(C)noc3C)C2=O)cc1`, the AC40 is 5.45 µM.

For `Cc1noc(C)c1S(=O)(=O)Nc1ccc2c(c1)CC(=O)N([C@H](C)CO)C[C@@H](C)[C@H](CN(C)Cc1ccc(-c3ccccc3)cc1)O2`, the AC40 was 20.3 µM.

As for `C[C@H]1CN([C@@H](C)CO)C(=O)Cc2cc(NC(=O)CCCCCC(=O)Nc3ccccc3N)ccc2O[C@H]1CN(C)Cc1ccc(Cl)c(Cl)c1`, the AC40 is 12.6 µM.

With `Cc1onc(-c2ccccc2Cl)c1C(=O)NCc1nc(-c2ccccc2)no1`, the AC40 was 8.26 µM.

Consider `COc1ccc(S(=O)(=O)N(C)C[C@H]2Oc3c(NC(=O)Nc4ccccc4)cccc3C(=O)N([C@H](C)CO)C[C@H]2C)cc1`, for which the AC40 is 4.87 µM.

For `CCOC(=O)Cc1csc(NC(=O)CC(C)(C)C)n1`, the AC40 is 2.56 µM.

For the molecule `C[C@H](CO)N1C[C@H](C)[C@@H](CN(C)Cc2ccc(Cl)c(Cl)c2)Oc2ccc(NC(=O)C3CCCCC3)cc2CC1=O`, the AC40 is 17.4 µM.
